Values after ≈ are worked out from the molar mass of the structure shown. Active and inactive are the calls of the source. No cut-off for these calls is given here.
Legend:
[1] = test system: Lipid bilayer; assay: Binding affinity to DMPG vesicles assessed as change in enthalpy by differential scanning calorimetric analysis
[2] = test system: Lipid bilayer; assay: Binding affinity to DMPG vesicles assessed as melting transition temperature by differential scanning calorimetric analysis (reference value: 21.09 to 23.32 degC)
[3] = test system: Mycobacterium tuberculosis; assay: Antimycobacterial activity against Mycobacterium tuberculosis H37Rv ATCC 27294 assessed as growth inhibition at 10 uM after 5 days relative to control; type: functional; details: H37Rv ATCC 27294, 120 h, read-out: GI
[4] = test system: Mycolicibacterium smegmatis; assay: Antimycobacterial activity against Mycobacterium smegmatis MC2 155 ATCC 700084 assessed as growth inhibition at 10 uM after 5 days relative to control; type: functional; details: MC2 155 ATCC 700084, 120 h, read-out: GI
[5] = Therapeutic index, ratio of HC50 for human RBC to MIC50 for Mycobacterium tuberculosis H37Rv ATCC 27294
[6] = test system: Mycobacterium tuberculosis; assay: Antimycobacterial activity against Mycobacterium tuberculosis H37Rv ATCC 27294 after 5 days by broth dilution method; type: functional; details: H37Rv ATCC 27294, 120 h
[7] = test system: HepG2; assay: Cytotoxicity against human HepG2 cells assessed as reduction in cell viability after 48 hrs by MTT assay; type: cell-based; details: HepG2, 48 h
[8] = test system: Vero C1008; assay: Cytotoxicity against African green monkey Vero E6 cells assessed as reduction in cell viability after 48 hrs by 96 aqueous one-based assay; details: Chlorocebus sabaeus, Vero C1008, 48 h
[9] = Aqueous solubility of compound at pH 7.4 at 25 degC after 24 hrs; type: physicochemical; details: buffer
[10] = Selectivity index, ratio of IC50 for human HepG2 cells to MIC50 for Mycobacterium tuberculosis H37Rv ATCC 27294; type: toxicity; details: read-out: Selectivity Index
[11] = Selectivity index, ratio of IC50 for African green monkey Vero E6 cells to MIC50 for Mycobacterium tuberculosis H37Rv ATCC 27294; type: toxicity, Vero C1008; details: read-out: Selectivity Index
[12] = Half life in rat liver microsomes preincubated for 5 mins followed by NADPH addition measured up to 45 mins by LC-MS analysis; type: ADME, microsome
[13] = test system: Lipid bilayer; assay: Binding affinity to DMPG vesicles assessed as increase in width at 1/2 height of endotherm of compound containing vesicles by differential scanning calorimetric analysis
[14] = test system: Mycobacteroides abscessus; assay: Antimycobacterial activity against Mycobacterium abscessus Bamboo after 3 days; type: functional; details: 72 h
[15] = test system: Mycobacterium avium; assay: Antimycobacterial activity against Mycobacterium avium 11 after 4 days; type: functional; details: Mycobacterium avium, 11, 96 h
[16] = test system: Staphylococcus aureus; assay: Antibacterial activity against Staphylococcus aureus ATCC 29213 after 18 hrs; type: functional; details: ATCC 29213, 18 h
[17] = test system: Escherichia coli; assay: Antibacterial activity against Escherichia coli ATCC 25922 after 18 hrs; type: functional

CCCCCCn1cc(CN2CCCCCC2)c2c(F)cccc21
deltaH [1]: -1.52 kcal/mol
Tm [2]: 19 °C
inhibition of growth at 10 µM [3]: 99%
inhibition of growth at 10 µM [4]: 99%

CCCCCCCCn1cc(CN2CCCCCC2)c2c(F)cccc21
TI [5]: 15 to 30
MIC50 [6]: 2.3 µM (≈ 0.825 µg/mL)
MIC90 [6]: 5 µM (≈ 1.79 µg/mL)
IC50 [7]: 19.2 µM
IC50 [8]: 29.2 µM
solubility at 24 h [9]: 35.9 µM (≈ 12.9 µg/mL)
selectivity ratio [10]: 8.3
selectivity ratio [11]: 12.7
half-life [12]: 560 min
deltaH [1]: -1.39 kcal/mol
Tm [2]: 18 °C
Activity [13]: Active
MIC50 [14]: 19 µM (≈ 6.81 µg/mL)
MIC50 [15]: 2 µM (≈ 0.717 µg/mL)
MIC50 [16]: 8 µM (≈ 2.87 µg/mL)
Activity [17]: inactive
inhibition of growth at 10 µM [3]: 99%
inhibition of growth at 10 µM [4]: 99%

Fc1cccc2[nH]cc(CN3CCCCCC3)c12
deltaH [1]: -4.83 kcal/mol
Tm [2]: 20.4 °C
inhibition of growth at 10 µM [3]: 99%
inhibition of growth at 10 µM [4]: 99%

CC(C)=CCC/C(C)=C/Cn1cc(CN2CCCCC2)c2cc(F)ccc21
solubility at 24 h [9]: 25 µM (≈ 9.21 µg/mL)
selectivity ratio [11]: 6
inhibition of growth at 10 µM [3]: 99%
inhibition of growth at 10 µM [4]: 99%

CCCCCCCCn1cc(CN2CCC3(CC2)OCCO3)c2c(F)cccc21
MIC50 [6]: 5.3 µM (≈ 2.13 µg/mL)
MIC90 [6]: 10.6 µM (≈ 4.27 µg/mL)
IC50 [7]: 21.8 µM
IC50 [8]: 38.9 µM
selectivity ratio [10]: 4.1
selectivity ratio [11]: 7.3
deltaH [1]: -1.7 kcal/mol
Tm [2]: 19.4 °C
inhibition of growth at 10 µM [3]: 99%
inhibition of growth at 10 µM [4]: 99%

CCn1cc(CN2CCCCCC2)c2c(F)cccc21
deltaH [1]: -3.44 kcal/mol
Tm [2]: 19.8 °C
inhibition of growth at 10 µM [3]: 99%
inhibition of growth at 10 µM [4]: 99%

CCCCCCCCn1cc(CNC23CC4CC(CC(C4)C2)C3)c2c(F)cccc21
MIC50 [6]: 2 µM (≈ 0.821 µg/mL)
MIC90 [6]: 3 µM (≈ 1.23 µg/mL)
IC50 [7]: 13 µM
IC50 [8]: 16 µM
solubility at 24 h [9]: 10.2 µM (≈ 4.19 µg/mL)
selectivity ratio [10]: 6.5
selectivity ratio [11]: 8
half-life [12]: 15.9 min
inhibition of growth at 10 µM [3]: 99%
inhibition of growth at 10 µM [4]: 99%

CCCCCCCCn1cc(C(=O)N2CCCCCC2)c2cc(F)ccc21
deltaH [1]: -2.52 kcal/mol
Tm [2]: 18.9 °C
Activity [13]: inactive
inhibition of growth at 10 µM [3]: 99%
inhibition of growth at 10 µM [4]: 99%

CCCCCCCCn1cc(CN2CCC(C)CC2)c2ccc(OC)cc21
TI [5]: 15 to 30
MIC50 [6]: 1.5 µM (≈ 0.556 µg/mL)
MIC90 [6]: 3.3 µM (≈ 1.22 µg/mL)
IC50 [7]: 15.7 µM
IC50 [8]: 32.2 µM
solubility at 24 h [9]: 44.9 µM (≈ 16.6 µg/mL)
selectivity ratio [10]: 10.5
selectivity ratio [11]: 21.5
half-life [12]: 5.5 min
deltaH [1]: -1.63 kcal/mol
Tm [2]: 18.9 °C
inhibition of growth at 10 µM [3]: 99%
inhibition of growth at 10 µM [4]: 99%

CCCCCCCCn1ccc2c(F)cccc21
deltaH [1]: -3.34 kcal/mol
Tm [2]: 19.9 °C
Activity [13]: inactive
inhibition of growth at 10 µM [3]: 99%
inhibition of growth at 10 µM [4]: 99%

CCCCCCCCCCCCn1cc(CN2CCCCCC2)c2c(F)cccc21
deltaH [1]: -0.44 kcal/mol
Tm [2]: 18.8 °C
Activity [13]: inactive
inhibition of growth at 10 µM [3]: 99%
inhibition of growth at 10 µM [4]: 99%

CCCCCCCCn1cc(CN2CCC3(CC2)OCCO3)c2ccc(F)cc21
MIC50 [6]: 3 µM (≈ 1.21 µg/mL)
MIC90 [6]: 6 µM (≈ 2.42 µg/mL)
IC50 [7]: 25.5 µM
IC50 [8]: 47.5 µM
selectivity ratio [10]: 8.5
selectivity ratio [11]: 15.8
deltaH [1]: -2.15 kcal/mol
Tm [2]: 18.5 °C
inhibition of growth at 10 µM [3]: 99%
inhibition of growth at 10 µM [4]: 99%

CCCCCCCCn1cc(CN2CCC3(CC2)OCCO3)c2ccc(OC)cc21
TI [5]: 15 to 30
MIC50 [6]: 1.2 µM (≈ 0.498 µg/mL)
MIC90 [6]: 2.3 µM (≈ 0.954 µg/mL)
IC50 [7]: 15.7 µM
IC50 [8]: 46.1 µM
solubility at 24 h [9]: 31.3 µM (≈ 13 µg/mL)
selectivity ratio [10]: 13.1
selectivity ratio [11]: 38.4
half-life [12]: 27.9 min
deltaH [1]: -1.59 kcal/mol
Tm [2]: 18.1 °C
inhibition of growth at 10 µM [3]: 99%
inhibition of growth at 10 µM [4]: 99%

CC(C)=CCC/C(C)=C/Cn1cc(CN2CCCCC2)c2cc(Br)ccc21
inhibition of growth at 10 µM [3]: 99%
inhibition of growth at 10 µM [4]: 99%

CCCCCCCCn1cc(CN2CCCCC2)c2cccc(F)c21
inhibition of growth at 10 µM [3]: 99%
inhibition of growth at 10 µM [4]: 99%

CCCCCCCCCCn1cc(CN2CCCCCC2)c2c(F)cccc21
deltaH [1]: -0.963 kcal/mol
Tm [2]: 18.6 °C
Activity [13]: inactive
inhibition of growth at 10 µM [3]: 99%
inhibition of growth at 10 µM [4]: 99%

CCCCCCCCn1cc(CNC23CC4CC(CC(C4)C2)C3)c2cccc(OC)c21
inhibition of growth at 10 µM [3]: 99%
inhibition of growth at 10 µM [4]: 99%

CCCCCCCCn1cc(CN(CC)CC)c2cc(F)ccc21
inhibition of growth at 10 µM [3]: 99%
inhibition of growth at 10 µM [4]: 99%

CCCCCCCCn1cc(CN2CCC(C)CC2)c2c(F)cccc21
MIC50 [6]: 3 µM (≈ 1.08 µg/mL)
MIC90 [6]: 6 µM (≈ 2.15 µg/mL)
IC50 [7]: 15.6 µM
IC50 [8]: 35.2 µM
solubility at 24 h [9]: 23.2 µM (≈ 8.32 µg/mL)
selectivity ratio [10]: 5.2
selectivity ratio [11]: 11.7
half-life [12]: 22.8 min
deltaH [1]: -2.69 kcal/mol
Tm [2]: 19.8 °C
inhibition of growth at 10 µM [3]: 99%
inhibition of growth at 10 µM [4]: 99%

CCCCn1cc(CN2CCCCCC2)c2c(F)cccc21
deltaH [1]: -3.3 kcal/mol
Tm [2]: 19 °C
inhibition of growth at 10 µM [3]: 99%
inhibition of growth at 10 µM [4]: 99%

CCCCCCCCn1cc(CN2CCC(C)CC2)c2cccc(OC)c21
inhibition of growth at 10 µM [3]: 99%
inhibition of growth at 10 µM [4]: 99%

CCCCCCCCn1cc(CN2CCCCC2)c2cccc(OC)c21
inhibition of growth at 10 µM [3]: 99%
inhibition of growth at 10 µM [4]: 99%

CCCCCCCCn1cc(CN2CCN(C)CC2)c2cc(F)ccc21
inhibition of growth at 10 µM [3]: 99%
inhibition of growth at 10 µM [4]: 99%

CCCCCCCCn1cc(CN2CCCCCC2)c2cccc(OC)c21
inhibition of growth at 10 µM [3]: 99%
inhibition of growth at 10 µM [4]: 99%

CC(C)=CCC/C(C)=C/Cn1cc(CN2CCC(C)CC2)c2cc(F)ccc21
inhibition of growth at 10 µM [3]: 99%
inhibition of growth at 10 µM [4]: 99%

CCCCCCCCn1cc(CNC(C)C)c2cc(F)ccc21
inhibition of growth at 10 µM [3]: 99%
inhibition of growth at 10 µM [4]: 99%

From ChEMBL document CHEMBL4007488, “Amphiphilic Indole Derivatives as Antimycobacterial Agents: Structure-Activity Relationships and Membrane Targeting Properties” (J Med Chem, 2017)
